According to patent publication US10544146B2, “Bicyclic compounds and their use as antibacterial agents and β-lactamase inhibitors” (priority 2011, dated 2020):

Tested on: metallo β-lactamase producing bacteria
Test: MIC in combination with various antibiotics against metallo β-lactamase producing bacteria (Tables 10-12)
Format: cell-based
Conditions: substance alone
Protocol: In the Tables 10-12, compounds of the present invention were tested in combination with various antibiotics against metallo β-lactamase producing bacteria.

[1] = Citrobacter freundii, Citrobacter freundii isolate 49469, NDM-1
[2] = Enterobacter cloacae, Enterobacter cloacae isolate 4, VIM-6
[3] = Enterobacter cloacae, Enterobacter cloacae isolate 10, IMP-26
[4] = Enterobacter cloacae, Enterobacter cloacae isolate 25, IMP-4
[5] = Enterobacter cloacae, Enterobacter cloacae isolate 1068, VIM-2
[6] = Enterobacter cloacae, Enterobacter cloacae isolate 1280, VIM-5
[7] = Enterobacter cloacae, Enterobacter cloacae isolate 1471, VIM-1
[8] = Enterobacter cloacae, Enterobacter cloacae isolate 1874, IMP-21
[9] = Enterobacter cloacae, Enterobacter cloacae isolate 3686, IMP-1
[10] = Enterobacter cloacae, Enterobacter cloacae isolate 53477, NDM-1
[11] = Escherichia coli, Escherichia coli isolate 13, IMP-1
[12] = Escherichia coli, Escherichia coli isolate 17, NDM-1
[13] = Escherichia coli, Escherichia coli isolate 49, NDM-1
[14] = Escherichia coli, Escherichia coli isolate 53749, NDM-1
[15] = Klebsiella aerogenes, Enterobacter aerogenes isolate 8397, VIM-1
[16] = Klebsiella aerogenes, Enterobacter aerogenes isolate 47683, VIM-12
[17] = Klebsiella oxytoca, Klebsiella oxytoca isolate 24825, IMP-26
[18] = Klebsiella oxytoca, Klebsiella oxytoca isolate 31141, VIM-23
[19] = Klebsiella pneumoniae, Klebsiella pneumoniae isolate 16, VIM-5
[20] = Klebsiella pneumoniae, Klebsiella pneumoniae isolate 38, NDM-1
[21] = Providencia stuartii, Providencia stuartii isolate 26582, VIM-1
[22] = Serratia marcescens, Serratia marcescens isolate 35, IMP-4
[23] = Serratia marcescens, Serratia marcescens isolate 36098, IMP-19

MIC [1] | MIC [2] | MIC [3] | MIC [4] | MIC [5] | MIC [6] | MIC [7] | MIC [8] | MIC [9] | MIC [10] | MIC [11] | MIC [12] | MIC [13] | MIC [14] | MIC [15] | MIC [16] | MIC [17] | MIC [18] | MIC [19] | MIC [20] | SMILES | further results
> 64 µg/mL | 61 µg/mL | 61 µg/mL | 4 µg/mL | 4 µg/mL | 4 µg/mL | 2 µg/mL | 2 µg/mL | 2 µg/mL | 2 µg/mL | 1 µg/mL | 2 µg/mL | 2 µg/mL | 2 µg/mL | > 64 µg/mL | > 64 µg/mL | > 64 µg/mL | > 64 µg/mL | > 64 µg/mL | > 64 µg/mL | CC(=O)NNC(=O)[C@@H]1CC[C@@H]2CN1C(=O)N2OS(=O)(=O)O [Ex. 40, (2S,5R)-N′-acetyl-7-oxo-6-(sulfooxy)-1,6-diazabicyclo[3.2.1]octane-2-carbohydrazide] | MIC [21]: > 64 µg/mL; MIC [22]: > 64 µg/mL; MIC [23]: > 64 µg/mL
> 64 µg/mL | 64 µg/mL | 64 µg/mL | 8 µg/mL | 8 µg/mL | 4 µg/mL | 4 µg/mL | 4 µg/mL | 4 µg/mL | 4 µg/mL | 16 µg/mL | 4 µg/mL | 4 µg/mL | 4 µg/mL | > 64 µg/mL | > 64 µg/mL | > 64 µg/mL | > 64 µg/mL | > 64 µg/mL | > 64 µg/mL | O=C(NO[C@H]1CCNC1)[C@@H]1CC[C@@H]2CN1C(=O)N2OS(=O)(=O)O [Ex. 2, (2S,5R)-7-Oxo-N-[(3S)-pyrrolidin-3-yloxy]-6-(sulfooxy)-1,6-diazabicyclo[3.2.1]octane-2-carboxamide] | MIC [21]: > 64 µg/mL; MIC [22]: > 64 µg/mL; MIC [23]: > 64 µg/mL
> 64 µg/mL | 64 µg/mL | 64 µg/mL | 4 µg/mL | 4 µg/mL | 4 µg/mL | 4 µg/mL | 2 µg/mL | 4 µg/mL | 8 µg/mL | 2 µg/mL | 2 µg/mL | 2 µg/mL | 2 µg/mL | > 64 µg/mL | > 64 µg/mL | > 64 µg/mL | > 64 µg/mL | > 64 µg/mL | > 64 µg/mL | O=C(NO[C@H]1CCCNC1)[C@@H]1CC[C@@H]2CN1C(=O)N2OS(=O)(=O)O [Ex. 4, (2S,5R)-7-Oxo-N-[(3S)-piperidin-3-yloxy]-6-(sulfooxy)-1,6-diazabicyclo[3.2.1]octane-2-carboxamide] | MIC [21]: > 64 µg/mL; MIC [22]: > 64 µg/mL; MIC [23]: > 64 µg/mL
